The supplement of paper PMC10307832

What was measured:
Assay in all cases: relative viability (nuclei count vs DMSO), 5 days (fraction); higher = more cells survive
AT-7519 + Palbociclib = compound: O=C(NC1CCNCC1)c1n[nH]cc1NC(=O)c1c(Cl)cccc1Cl [AT-7519] + CC(=O)c1c(C)c2cnc(Nc3ccc(N4CCNCC4)cn3)nc2n(C2CCCC2)c1=O [Palbociclib] (partner 0.5 µM)
Summary of the method: (§1)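 A single step with final 0.05% Triton X-100, 1% formaldehyde and 1 ug/ml Hoechst fixed the cells and stained nuclei 5 days after treatment. Lung cancer cell lines in 1536-well plates had been treated by pin tool the day after seeding with one drug alone or a fixed anchor-drug dose plus five library-drug doses (not always all listed) in √10 steps, and nuclei were counted on 4× images. Relative viability is the ratio of nuclei in treated wells to nuclei in vehicle wells, taken as the median of duplicate plates.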

[1] = compound: C1=CC2=C(C=C(C(=C2N=C1)O)N=NC3=CC4=C(C=C3)C=C(C=C4)S(=O)(=O)O)S(=O)(=O)O + CC(=O)c1c(C)c2cnc(Nc3ccc(N4CCNCC4)cn3)nc2n(C2CCCC2)c1=O [Palbociclib] (partner 0.5 µM)
Summary of the method: as §1

[2] = compound: C1=CC2=C(C=C(C(=C2N=C1)O)N=NC3=CC4=C(C=C3)C=C(C=C4)S(=O)(=O)O)S(=O)(=O)O + CCNC(=O)c1noc(-c2cc(C(C)C)c(O)cc2O)c1-c1ccc(CN2CCOCC2)cc1 [Luminespib] (partner 0.01 µM)
Summary of the method: as §1

[3] = compound: C1=CC2=C(C=C(C(=C2N=C1)O)N=NC3=CC4=C(C=C3)C=C(C=C4)S(=O)(=O)O)S(=O)(=O)O + NC(=O)Nc1cc(-c2cccc(F)c2)sc1C(=O)N[C@H]1CCCNC1 [AZD7762] (partner 0.2 µM)
Summary of the method: as §1

Cell Line | relative viability (AT-7519 + Palbociclib; first compound 0.01 µM) | relative viability (AT-7519 + Palbociclib; first compound 0.03162 µM) | relative viability (AT-7519 + Palbociclib; first compound 0.3162 µM) | relative viability (AT-7519 + Palbociclib; first compound 1 µM) | relative viability ([1]; first compound 0.08 µM) | relative viability ([1]; first compound 0.253 µM) | relative viability ([1]; first compound 0.8 µM) | relative viability ([1]; first compound 2.53 µM) | relative viability ([1]; first compound 8 µM) | relative viability ([2]; first compound 0.08 µM) | relative viability ([2]; first compound 0.253 µM) | relative viability ([2]; first compound 0.8 µM) | relative viability ([2]; first compound 2.53 µM) | relative viability ([2]; first compound 8 µM) | relative viability ([3]; first compound 0.08 µM) | relative viability ([3]; first compound 0.253 µM) | relative viability ([3]; first compound 0.8 µM) | relative viability ([3]; first compound 2.53 µM) | relative viability ([3]; first compound 8 µM)
NCI-H2126 | 0.348 | 0.352 | 0.358 | 0.341 | 0.342 | 0.363 | 0.359 | 0.36 | 0.327 | 0.898 | 0.899 | 0.89 | 1.04 | 0.86 | 1.05 | 0.971 | 0.941 | 0.939 | 0.994
HOP-62 | 0.422 | 0.465 | 0.489 | 0.489 | 0.481 | 0.423 | 0.42 | 0.513 | 0.499 | 0.878 | 0.773 | 0.916 | 0.919 | 0.898 | 0.715 | 0.34 | 0.607 | 0.731 | 0.57
CAL-12T | 0.396 | 0.471 | 0.172 | 0.151 | 0.471 | 0.352 | 0.415 | 0.481 | 0.351 | 0.466 | 0.519 | 0.616 | 0.207 | 0.335 | 0.621 | 0.6 | 0.61 | 0.635 | 0.601
NCI-H1755 | 0.477 | 0.478 | 0.435 | 0.458 | 0.473 | 0.438 | 0.437 | 0.468 | 0.415 | 0.431 | 0.378 | 0.395 | 0.41 | 0.472 | 0.535 | 0.419 | 0.361 | 0.457 | 0.459
